# Laboratory results taken from the Bradley open melting point set (2014).
row,Compound,melting point [°C]
1,O=C(c1ccccc1)c1ccc(Cl)cc1 [4-chlorobenzophenone],76
2,"C=CC(C)(C)C [3,3-dimethyl-1-butene]",-115
3,CNC=O [n-methylformamide],-40
4,Clc1cccc(-c2ccccc2)c1 [3-chlorobiphenyl],18
5,O=C(O)c1ccc([N+](=O)[O-])cc1 [4-nitrobenzoic acid],240
6,"COC(=O)c1ccc(N)c(N)c1 [methyl 3,4-diaminobenzoate]",107
7,O=C(O)c1cnc(Br)s1 [2-bromothiazole-5-carboxylic acid],182
8,c1ccc(CNCc2ccccc2)cc1 [dibenzylamine],-26
9,CCCCCCCc1ccccc1 [N-heptylbenzene],-48
10,Cc1cn([C@H]2C[C@H](O)[C@@H](CO)O2)c(=O)[nH]c1=O [thymidine],188
11,CCCCCCCCCCCC(=O)O [Lauric acid],45
12,CC(COc1ccccc1)NC(C)C(O)c1ccc(O)cc1 (centres undefined) [isoxsuprine],103
13,Cc1c(C)c(C)c(C=O)c(C)c1C [Pentamethylbenzaldehyde],133
14,CCC1(c2ccccc2)C(=O)NC(=O)N(C)C1=O (centres undefined) [Methylphenobarbital],176
15,CC(C(=O)O)c1ccc(-c2ccccc2)c(F)c1 (centres undefined) [Flurbiprofen],114
16,"CC(O)CCc1ccc(CCC(C)O)cc1 (centres undefined) [4,4'-benzene-1,4-diyldibutan-2-ol]",44
17,"O=Cc1c(-c2ccccc2)nc2n1CCS2 [2,3-dihydro-6-phenylimidazo[2,1-b]thiazole-5-carboxaldehyde]",123
18,NC(c1ccccc1)c1ccccc1 [aminodiphenylmethane],12
19,"OCC(F)(F)F [2,2,2-Trifluoroethanol]",-43.5
20,CS(=O)c1ccc(cc1)/C=C3c2ccc(F)cc2C(CC(=O)O)=C3C (centres undefined) [Sulindac],183
21,CC1(C)C=C(C(=O)O)C1 [Acid 9 (No name)],70
22,CS(=O)(=O)O [methanesulfonic acid],20
23,CCCCCCN [Hexan-1-amine],-23
24,Cc1ccc(C#N)cc1 [p-tolunitrile],28
25,N#CCc1ccccc1Cl [2-chlorobenzyl_cyanide],24
26,CCC1(CCC(C)C)C(=O)NC(=O)NC1=O [amobarbital],156

row,Compound,melting point [°C]
1,OCCCl [2-chloroethanol],-67
2,O=C(O)/C=C/c1ccccc1 [trans-cinnamic acid],135
3,Cc1ccc(B(O)O)cc1Cl [3-chloro-4-methylbenzeneboronic acid],227
4,O=P(O)(O)O [orthophosphoric acid],20
5,"Cc1cccc(Cl)c1Cl [2,3-dichlorotoluene]",6
6,O=C(O)c1ccccc1I [2-iodobenzoic acid],162
7,CCCC(C)(COC(N)=O)COC(=O)NC(C)C (centres undefined) [carisoprodol],92
8,COC(=O)c1ccc(N)nc1 [methyl 6-aminonicotinate],155
9,Cc1cccc(O)c1 [m-cresol],12
10,C[C@]12CC[C@H]3[C@@H](CCC4=CC(=O)CC[C@@]43C)[C@@H]1CC[C@@H]2C(=O)CO [deoxycorticosterone],142
11,N#CCc1ccc(Cc2ccccc2)cc1 [4-benzylphenylacetonitrile],36
12,"COc1cc(C(=O)O)cc(O)c1OC [5-hydroxy-3,4-dimethoxybenzoic acid]",196
13,COc1cc(Cc2cnc(N)nc2N)cc(OC)c1OC [trimethoprim],200
14,NC1=C(c2ccccc2)C(=O)c2ccccc21 [3-amino-2-phenylindenone],271
15,COc1ccc(C(=O)O)cc1 [4-methoxybenzoic acid],185
16,"O=[N+]([O-])c1ccc(C=NO)cc1 [Benzaldehyde, 4-nitro-, oxime]",130
17,O=C(O)CCCCCCCCC(=O)O [sebacic_acid],133
18,"O=c1on(-c2ccccc2)c(Br)c1-c1ccccc1 [3-bromo-2,4-diphenylisoxazol-5(2H)-one]",166
19,OB(O)c1cc(C(F)(F)F)ccc1F [2-fluoro-5-(trifluoromethyl)benzeneboronic acid],107
20,Cc1cc(O)c(C(C)C)cc1C1(c2cc(C(C)C)c(O)cc2C)OC(=O)c2ccccc21 [thymolphthalein],252
21,CC(C)CCC[C@@H](C)[C@H]1CC[C@H]2[C@@H]3CC[C@H]4C[C@@H](O)CC[C@]4(C)[C@H]3CC[C@]12C [5alpha-cholestan-3beta-ol],142
22,"Oc1ccc2c(c1)CCCC2 [5,6,7,8-tetrahydro-2-naphthol]",62
23,O=c1cccccc1O [tropolone],53
24,"c1ccc(NNc2ccccc2)cc1 [1,2-Diphenylhydrazine]",125
25,B1Oc2ccccc2O1 [catecholborane],12
26,N#Cc1ccc(C(c2ccc(C#N)cc2)n2cncn2)cc1 [letrozole],181

row,Compound,melting point [°C]
1,O=C(O)c1cc([N+](=O)[O-])ccc1Br [2-bromo-5-nitrobenzoic acid],180
2,O=Cc1ccccc1C=O [Phthalaldehyde],56
3,"CC(=O)C(=Cc1ccc(-c2ccccc2[N+](=O)[O-])o1)C(C)=O [3-{[5-(2-nitrophenyl)-2-furyl]methylene}pentane-2,4-dione]",128
4,O=C(O)[C@@H]1CCCN1 [proline],221
5,CCCCCCCI [1-iodoheptane],-48
6,CCO[Si](OCC)(OCC)OCC [tetraethoxysilane],-85
7,ClCc1ccc(Br)cc1 [4-bromobenzyl chloride],40
8,"Cc1c(F)ccc([N+](=O)[O-])c1C [3-fluoro-1,2-dimethyl-6-nitrobenzene]",41
9,O=C(O)c1ccccc1Br [2-bromobenzoic acid],149
10,"CCC(C)(C)CC [3,3-dimethylpentane]",-134
11,CC12CCC(O)CC1CC1(OCCO1)C1C2CCC2(C)C1CCC21OCCO1 (centres undefined),101
12,CC(=O)c1ccc(B(O)O)s1 [5-acetylthiophene-2-boronic acid],145
13,COC(=O)OC [dimethyl carbonate],4
14,O=S(Cl)Cl [Thionyl dichloride],-104
15,"CC(C)CC(C)C [2,4-dimethylpentane]",-119
16,"OB(O)c1cc(F)c(F)cc1F [2,4,5-trifluorobenzeneboronic acid]",100
17,NS(=O)(=O)c1cc2c(cc1Cl)NCNS2(=O)=O,274
18,O=CCCCC=O [glutaraldehyde],-21
19,"Cc1c(N)cccc1N [2,6-diaminotoluene]",97
20,CC=C(/C)C [2-Methylbut-2-ene],-134
21,O=C(O)[C@H]1CCCN1C(=O)OCc1ccccc1 [N-benzyloxycarbonyl-D-proline],77
22,CCCCCBr [1-bromopentane],-88
23,CCN1CCCC1CNC(=O)c1cc(S(N)(=O)=O)ccc1OC (centres undefined) [sulpiride],179
24,C=CCN1CC[C@]23CCCC[C@H]2[C@H]1Cc1ccc(O)cc13 [Levallorphan],181
25,CCOC(=O)/C(=N/Nc1cc(Cl)ccc1Cl)C(=O)C(F)(F)F,147
26,CC(=O)Oc1ccccc1C(=O)O [acetylsalicylic acid],135

row,Compound,melting point [°C]
1,O=Cc1ccc(CO)o1 [5-hydroxymethyl-2-furaldehyde],34
2,CC=C(C)CC [3-methyl-cis-2-pentene],-135
3,C1CCOC1 [tetrahydrofuran],-108
4,CNc1ccc([N+](=O)[O-])cc1 [N-methyl-4-nitroaniline],153
5,"OC(COc1ccccc1)COc1ccccc1 [1,3-diphenoxy-2-propanol]",82
6,"Clc1ccc(C(c2ccc(Cl)cc2)C(Cl)(Cl)Cl)cc1 [4,4'-DDT]",110
7,O=C(O)CNc1ccccc1 [N-phenylglycine],118
8,c1cc(N2CCNCC2)ccn1 [1-(4-pyridyl)piperazine],139
9,O=C(c1ccccc1)c1cc(Br)ccc1O [5-bromo-2-hydroxybenzophenone],110
10,CC(C)c1ccc(Br)cc1 [p-bromocumene],-22
11,CCC(=O)C(C[C@H](C)N(C)C)(c1ccccc1)c1ccccc1 [methadone],102
12,COc1ccc(S(N)(=O)=O)cc1 [4-methoxybenzenesulfonamide],112
13,CCCS [1-propanethiol],-113
14,O=c1[nH]cc(F)c(=O)[nH]1 [fluorouracil],282
15,"O=C(O)c1ccc(Cl)c(Cl)c1 [3,4-Dichlorobenzoic acid]",208
16,OC(CCN1CCCCC1)(c1ccccc1)C1CCCCC1 (centres undefined) [trihexyphenidyl],115
17,"Nc1cc(Cl)ccc1Cl [2,5-dichloroaniline]",50
18,"O=C(O)c1cc(Cl)c([N+](=O)[O-])cc1[N+](=O)[O-] [5-chloro-2,4-dinitrobenzoic acid]",181
19,Cc1c(C)c2c(c(C)c1O)CC[C@@](C)(CCC[C@H](C)CCC[C@H](C)CCCC(C)C)O2,2
20,Clc1ccc(COC(Cn2ccnc2)c2ccc(Cl)cc2Cl)cc1 (centres undefined) [econazole],87
21,N#Cc1ccccc1S(=O)(=O)Cl [2-cyanobenzenesulfonyl chloride],67
22,"O=C(Cl)c1ccc(Cl)cc1Cl [2,4-dichlorobenzoyl chloride]",18
23,C[C@H]1C[C@H]2[C@@H]3CCC4=CC(=O)C=C[C@]4(C)[C@@]3(F)[C@@H](O)C[C@]2(C)[C@@]1(O)C(=O)CO [Betamethasone],232
24,O=C(O)Cc1ccccc1Oc1ccc(Cl)cc1Cl [fenclofenac],135
25,BrC(c1ccccc1)c1ccccc1 [benzhydryl bromide],39
26,COc1ccccc1-c1ccc(/C=C/C(=O)c2ccco2)o1,97
